Format in all cases: biochemical
Assay [1] deals with T1, Itk (Homo sapiens, UniProt Q08881).
T1 sequence (Q08881 1-620): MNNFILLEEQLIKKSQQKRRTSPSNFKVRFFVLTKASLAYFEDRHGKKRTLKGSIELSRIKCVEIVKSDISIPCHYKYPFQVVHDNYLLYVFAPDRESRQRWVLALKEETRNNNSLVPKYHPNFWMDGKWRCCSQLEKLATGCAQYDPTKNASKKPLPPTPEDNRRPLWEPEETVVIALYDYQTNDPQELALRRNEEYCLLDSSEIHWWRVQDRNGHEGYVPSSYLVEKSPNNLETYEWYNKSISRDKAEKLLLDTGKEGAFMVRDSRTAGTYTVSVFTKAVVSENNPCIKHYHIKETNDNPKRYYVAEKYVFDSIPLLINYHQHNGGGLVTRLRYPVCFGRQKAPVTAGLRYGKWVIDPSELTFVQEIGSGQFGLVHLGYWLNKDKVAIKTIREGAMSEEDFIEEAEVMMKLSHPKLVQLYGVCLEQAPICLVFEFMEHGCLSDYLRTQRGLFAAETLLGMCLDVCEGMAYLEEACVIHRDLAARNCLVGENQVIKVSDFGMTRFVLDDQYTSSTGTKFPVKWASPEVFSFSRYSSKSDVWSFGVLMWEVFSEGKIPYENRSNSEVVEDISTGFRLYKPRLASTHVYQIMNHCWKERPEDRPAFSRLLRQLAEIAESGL
In words: ITK Inhibition Assay (Radiometric), radioactive-phosphate incorporation. The note with it: enzyme inhibition data (Ki), Table 11; radiometric or UV assay not stated. The essentials:
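Radiometric 33P incorporation into SAM68 peptide (D332-443) with filter capture and scintillation counting; 10 min pre-incubation then 10 min reaction at 25° C. IC50 format: 30 nM Itk, 15 μM ATP, 2 μM peptide, HEPES pH 7.5. Ki(app) format: 50 nM Itk, 7.5 μM ATP, 3 μM peptide, MOPS pH 7.0.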

Assay [2] concerns the target T2, JAK3 (Homo sapiens, UniProt P52333).
T2 sequence (P52333 1-1124): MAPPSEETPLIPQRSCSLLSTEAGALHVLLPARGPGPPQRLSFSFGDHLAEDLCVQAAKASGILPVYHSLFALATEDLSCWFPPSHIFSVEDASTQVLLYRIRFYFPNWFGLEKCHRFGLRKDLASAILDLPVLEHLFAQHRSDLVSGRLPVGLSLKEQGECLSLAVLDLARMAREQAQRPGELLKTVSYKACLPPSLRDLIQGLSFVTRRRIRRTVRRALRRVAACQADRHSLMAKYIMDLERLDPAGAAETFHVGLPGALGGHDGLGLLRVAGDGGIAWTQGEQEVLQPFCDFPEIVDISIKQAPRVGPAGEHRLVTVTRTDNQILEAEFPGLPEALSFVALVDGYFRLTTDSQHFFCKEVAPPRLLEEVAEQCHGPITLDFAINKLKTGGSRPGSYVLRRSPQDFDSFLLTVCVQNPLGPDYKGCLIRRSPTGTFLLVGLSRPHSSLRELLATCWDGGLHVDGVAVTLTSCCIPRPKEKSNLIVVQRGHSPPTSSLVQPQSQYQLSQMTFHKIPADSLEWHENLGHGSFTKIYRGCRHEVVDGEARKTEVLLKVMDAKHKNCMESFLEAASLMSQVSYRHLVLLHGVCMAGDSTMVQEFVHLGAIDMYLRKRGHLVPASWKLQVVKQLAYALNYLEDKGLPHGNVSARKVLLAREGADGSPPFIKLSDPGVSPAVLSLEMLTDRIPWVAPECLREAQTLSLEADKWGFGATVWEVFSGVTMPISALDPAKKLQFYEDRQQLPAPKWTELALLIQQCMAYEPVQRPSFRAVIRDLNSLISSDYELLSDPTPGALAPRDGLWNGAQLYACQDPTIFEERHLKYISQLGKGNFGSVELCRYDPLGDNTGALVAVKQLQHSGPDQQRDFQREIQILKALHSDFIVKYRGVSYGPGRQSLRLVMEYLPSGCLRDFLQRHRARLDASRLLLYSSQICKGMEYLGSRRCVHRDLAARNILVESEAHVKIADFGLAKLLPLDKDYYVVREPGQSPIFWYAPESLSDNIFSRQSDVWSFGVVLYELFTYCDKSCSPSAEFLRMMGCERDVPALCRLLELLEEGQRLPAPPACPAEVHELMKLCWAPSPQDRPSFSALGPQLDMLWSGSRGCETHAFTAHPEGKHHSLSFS
Briefly: JAK3 Inhibition Assay, 33P incorporation. The note with it: enzyme inhibition data (Ki), Table 11. The essentials:
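Recombinant JAK3 at 1 nM in HEPES pH 7.4 buffer with 10 mM MgCl2, 1 mM DTT and 0.01% BSA. Substrates were 5 μM ATP (200 uCi/μmole) and 1 μM poly(Glu)4Tyr, reacted 20 min at 25 °C. Stopped with TCA, and 33P incorporation counted on glass fiber filters.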

Assay [3] deals with c-Met (Homo sapiens, UniProt P08581). Briefly: c-Met Inhibition Assay, coupled enzyme system. Particulars: enzyme inhibition data (Ki), Table 11. The essentials: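 Pyruvate kinase/lactate dehydrogenase-coupled NADH assay in HEPES pH 7.5 with 80 nM c-Met, 200 μM ATP and 10 μM polyGluTyr at 30° C. Compound (0.006–12.5 μM final, 12-point) preincubated 10 min before ATP start; rates over 10 min gave Ki.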
c-Met, sequence (P08581 25-1390): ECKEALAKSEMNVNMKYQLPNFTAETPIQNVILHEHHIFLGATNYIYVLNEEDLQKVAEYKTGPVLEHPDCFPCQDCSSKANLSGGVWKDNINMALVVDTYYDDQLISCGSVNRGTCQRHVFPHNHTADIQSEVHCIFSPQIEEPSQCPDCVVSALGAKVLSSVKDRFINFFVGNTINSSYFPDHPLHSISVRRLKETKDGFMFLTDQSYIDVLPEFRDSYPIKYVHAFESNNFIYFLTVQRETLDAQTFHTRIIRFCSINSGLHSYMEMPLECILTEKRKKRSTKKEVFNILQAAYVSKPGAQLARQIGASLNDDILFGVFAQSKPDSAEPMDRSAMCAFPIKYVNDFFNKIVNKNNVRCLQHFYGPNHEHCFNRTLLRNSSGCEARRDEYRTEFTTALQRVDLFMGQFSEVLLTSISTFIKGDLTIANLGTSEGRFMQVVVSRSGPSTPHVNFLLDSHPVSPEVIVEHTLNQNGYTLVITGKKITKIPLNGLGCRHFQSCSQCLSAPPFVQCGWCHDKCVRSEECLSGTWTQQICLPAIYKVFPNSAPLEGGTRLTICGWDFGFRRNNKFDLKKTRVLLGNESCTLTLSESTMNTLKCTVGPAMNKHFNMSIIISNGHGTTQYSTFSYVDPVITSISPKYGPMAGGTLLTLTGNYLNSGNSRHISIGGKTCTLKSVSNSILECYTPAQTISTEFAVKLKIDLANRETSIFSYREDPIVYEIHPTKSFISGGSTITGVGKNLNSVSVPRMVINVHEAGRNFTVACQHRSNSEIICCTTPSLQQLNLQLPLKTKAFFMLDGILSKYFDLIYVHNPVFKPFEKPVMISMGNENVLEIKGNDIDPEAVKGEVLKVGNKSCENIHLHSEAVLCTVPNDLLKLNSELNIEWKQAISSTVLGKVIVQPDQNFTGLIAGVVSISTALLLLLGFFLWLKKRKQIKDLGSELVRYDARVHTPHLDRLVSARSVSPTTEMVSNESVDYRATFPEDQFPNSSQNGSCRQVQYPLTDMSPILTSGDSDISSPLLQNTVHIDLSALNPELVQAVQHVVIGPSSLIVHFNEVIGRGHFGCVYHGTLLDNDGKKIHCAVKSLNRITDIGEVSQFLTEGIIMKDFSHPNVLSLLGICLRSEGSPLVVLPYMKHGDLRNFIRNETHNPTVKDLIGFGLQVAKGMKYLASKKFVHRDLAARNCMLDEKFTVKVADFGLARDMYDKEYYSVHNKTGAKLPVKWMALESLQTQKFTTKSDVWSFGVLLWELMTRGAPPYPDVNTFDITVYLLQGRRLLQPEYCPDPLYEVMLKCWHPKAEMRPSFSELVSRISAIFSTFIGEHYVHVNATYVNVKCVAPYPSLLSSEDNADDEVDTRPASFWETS

Consider `Nc1nn2cc(-c3ccc(C(=O)N4CCCCC4)cn3)cnc2c1-c1ccccn1` [Compound V-91], for which the Ki in assay [1], in assay [2] and in assay [3] was below 500 nM in each case.
As for `CN(CC1OCCO1)C(=O)c1ccc(-c2cnc3c(-c4ccccn4)c(N)nn3c2)nc1` [Compound V-95], the inhibition constant Ki in assay [1] was below 500 nM; in assay [2], 500 to 5000 nM; in assay [3], below 500 nM.
`CCN(CCO)C(=O)c1ccc(-c2cnc3c(-c4ccccn4)c(N)nn3c2)nc1` [Compound V-99]: the Ki is below 500 nM in assay [1], 500 to 5000 nM in assay [2] and below 500 nM in assay [3].
For the molecule `CN(CCc1ccccn1)C(=O)c1cccc(-c2cnc3c(-c4ccccn4)c(N)nn3c2)n1` [Compound V-100], the Ki in assay [1] is 500 to 5000 nM; in assay [2], above 5000 nM; in assay [3] it was below 500 nM.
For `CC(C)N(C)C(=O)c1cccc(-c2cnc3c(-c4ccccn4)c(N)nn3c2)n1` [Compound V-103], the figures for the Ki in assay [1], in assay [2] and in assay [3] were 500 to 5000 nM, above 5000 nM and below 500 nM, respectively.
As for `CN1CCCN(C(=O)c2cccc(-c3cnc4c(-c5ccccn5)c(N)nn4c3)n2)CC1` [Compound V-105], the Ki in assay [1] is 500 to 5000 nM; in assay [2], above 5000 nM; in assay [3] it was below 500 nM.
The like results for `Nc1nn2cc(-c3cccc(C(=O)NCCF)n3)cnc2c1-c1ccccn1` [Compound V-107] were, in that order, 500 to 5000 nM, 500 to 5000 nM and below 500 nM.
For the molecule `COCCCNC(=O)c1cccc(-c2cnc3c(-c4ccccn4)c(N)nn3c2)n1` [Compound V-108], the Ki in assay [1] is 500 to 5000 nM; in assay [2] it was above 5000 nM; in assay [3], below 500 nM.
For `CCCCNC(=O)c1cccc(-c2cnc3c(-c4ccccn4)c(N)nn3c2)n1` [Compound V-109], the values for the Ki in assay [1], in assay [2] and in assay [3] were 500 to 5000 nM, above 5000 nM and below 500 nM, respectively.
For `CCN(CCCCN)C(=O)c1cccc(-c2cnc3c(-c4ccccn4)c(N)nn3c2)n1` [Compound V-110], the Ki in assay [1] is below 500 nM; in assay [2], 500 to 5000 nM; in assay [3] it was below 500 nM.
Consider `CCCN(CCO)C(=O)c1cccc(-c2cnc3c(-c4ccccn4)c(N)nn3c2)n1` [Compound V-111], for which the results for the Ki in assay [1], in assay [2] and in assay [3] were 500 to 5000 nM, above 5000 nM and below 500 nM, respectively.
In the case of `CCCCN(CCN)C(=O)c1cccc(-c2cnc3c(-c4ccccn4)c(N)nn3c2)n1` [Compound V-113], the Ki in assay [1] was below 500 nM; in assay [2], 500 to 5000 nM; in assay [3] it was below 500 nM.
Take `COCCCN1CCN(C(=O)c2cccc(-c3cnc4c(-c5ccccn5)c(N)nn4c3)n2)CC1` [Compound V-117]: the values for the Ki in assay [1], in assay [2] and in assay [3] were 500 to 5000 nM, above 5000 nM and below 500 nM, respectively.
For `CNC(=O)c1cccc(-c2cnc3c(-c4ccccn4)c(N)nn3c2)n1` [Compound V-118], the results for the Ki in assay [1], in assay [2] and in assay [3] were 500 to 5000 nM, above 5000 nM and below 500 nM, respectively.
As to `Nc1nn2cc(-c3cccc(C(=O)N4CCC(N)C4)n3)cnc2c1-c1ccccn1` (stereo not drawn) [Compound V-119], the inhibitory constant (Ki) in assay [1] is 500 to 5000 nM; in assay [2] it was 500 to 5000 nM; in assay [3], below 500 nM.
For the molecule `CN(CCN)C(=O)c1cccc(-c2cnc3c(-c4ccccn4)c(N)nn3c2)n1` [Compound V-120], the figures for the inhibition constant Ki in assay [1], in assay [2] and in assay [3] were below 500 nM, 500 to 5000 nM and below 500 nM, respectively.
As to `CCCN(CCCN)C(=O)c1cccc(-c2cnc3c(-c4ccccn4)c(N)nn3c2)n1` [Compound V-122], the inhibition constant Ki is below 500 nM in assay [1], 500 to 5000 nM in assay [2] and below 500 nM in assay [3].
As to `Nc1nn2cc(-c3cccc(C(=O)N4CCC4)n3)cnc2c1-c1ccccn1` [Compound V-123], the inhibition constant Ki in assay [1] was 500 to 5000 nM; in assay [2] it was above 5000 nM; in assay [3] it was below 500 nM.
For `CC(C)CN(C)C(=O)c1cccc(-c2cnc3c(-c4ccccn4)c(N)nn3c2)n1` [Compound V-125], the Ki is 500 to 5000 nM in assay [1], above 5000 nM in assay [2] and below 500 nM in assay [3].

Broadly, the Ki is a measure of affinity in units of concentration, obtained from inhibition or displacement.

The record behind these values is US7528138B2, “Pyrazolo[1,5-a]pyrimidines useful as inhibitors of protein kinases” (Vertex Pharmaceuticals Incorporated, priority 2004, dated 2009).
